In EPA's ToxValDB 9.5:

System: Rattus norvegicus
Conditions: oral
[1] = short-term, duration: 28 days, gavage, M/F, CD(SD)ICS BR, Clinical Observation: Fur-staining Hypoactivity(one animal)Hunched posture(one animal)Weight loss(one animal)Pallor(one animal) + Urinalysis…
[2] = short-term, duration: 28 days, gavage, M, Sprague-Dawley, Clinical Observation: Locomotor activity decrease, SalivationRespiratory rate decrease, Incomplete eyelid opening + Body Weight Changes: …
[3] = subchronic, gavage, M, Sprague-Dawley, Clinical Observation: Soft stool + Urinalysis: pH decrease(trend)Phosphate crystal (grade, frequency) decrease + Histopathology: Stomach-…

SMILES: CC(=O)O.O=C(NCC1CCCCN1)c1cc(OCC(F)(F)F)ccc1OCC(F)(F)F (stereo unspecified) [Flecainide acetate]
- NOAEL (chronic, duration: 91 days, gavage, F, Sprague-Dawley, Deaths + Clinical Observation: Patchy hair loss Salivation + Water Consumption: increase + Urinalysis: Volume increase, Protein decrease + …): 20 mg/kg-day
- NOAEL (chronic, duration: 91 days, gavage, M, Sprague-Dawley, Deaths + Clinical Observation: Patchy hair loss Salivation + Water Consumption: increase + Urinalysis: Volume increase, Protein decrease + …): 10 mg/kg-day

SMILES: O=C1c2ccccc2C(=O)N1SC(F)(Cl)Cl [Fluorofolpet]
- NOEL (short-term, duration: 28 days, gavage, M/F, Wistar, Deaths + Clinical Observation: Nasal noise Diarrhea + Body Weight Changes: Weight gain decrease + Food Consumption: decrease + Water …): < 20 mg/kg-day

SMILES: NS(=O)(=O)c1cc(C(=O)O)c(NCc2ccco2)cc1Cl [Furosemide]
- NOEL (subchronic, duration: 13 weeks, diet, M/F, Fischer 344, Deaths + Clinical Observation: Diuresis Rough fur + Body Weight Changes: decrease + Food Consumption: decrease + Relative Organ Weight: …): < 60 mg/kg-day

SMILES: OCC1CO1 (stereo unspecified) [Glycidol]
- NOEL (subchronic, duration: 13 weeks, gavage, M/F, Fischer 344, Deaths + Body Weight Changes: decrease + Absolute Organ Weight: -- + Histopathology: Brain /cerebellum-Necrosis Brain-Demyelination Kidney-…): < 25 mg/kg-day

SMILES: NNC(=O)CCCCC(=O)NN [Hexanedihydrazide]
- NOEL (subchronic, gavage, M, Sprague-Dawley, Clinical Observation: Emaciation R Incontinence of urine R Diarrhea R Loose stool R + Relative Organ Weight: Thymus increase, Kidney …): 85 mg/kg-day

SMILES: O=[N+]([O-])/N=C1\NCCN1Cc1ccc(Cl)nc1 [Imidacloprid]
- NOEL (chronic, duration: 96 days, gavage, M/F, Body Weight Changes: Weight gain decrease + Hematology: WBC decrease, QT increase + Blood Chemistry: BUN increase, CL increase, IP decrease…): < 150 ppm

SMILES: CC(I)C1OCC(CO)O1 (stereo unspecified) [Iodinated glycerol]
- NOEL (subchronic, duration: 13 weeks, gavage, M/F, Fischer 344, Deaths + Body Weight Changes: decrease + Histopathology: Kidney-Tubular cell regeneration Kidney-Calcification): 250 mg/kg-day

SMILES: C=CC(C)(O)CCCC(C)CCCC(C)CCCC(C)C (stereo unspecified) [Isophytol]
- NOAEL [1]: 500 mg/kg-day
- NOEL [1]: 250 mg/kg-day

SMILES: CN(C)c1ccc(C(c2ccccc2)c2ccc(N(C)C)cc2)cc1 [Leucomalachite green]
- NOEL (subchronic, diet, M, Fischer 344, Body Weight Changes: decrease + Hematology: Hct decrease, Hgb decrease, RBC decrease, Ret increase + Blood Chemistry: Alb decrease, Cho …): < 27.8 mg/kg-day

SMILES: CN1C(=O)C(O)N=C(c2ccccc2Cl)c2cc(Cl)ccc21 (stereo unspecified) [Lormetazepam]
- NOEL (subchronic, duration: 35 days, gavage, F, Sprague-Dawley, Clinical Observation: Locomotor activity decrease, Drowsiness Aggression + Body Weight Changes: Body weight gain increase + Food Consumption…): 4 mg/kg-day
- NOEL (subchronic, duration: 35 days, gavage, M, Sprague-Dawley, Clinical Observation: Locomotor activity decrease, Drowsiness Aggression + Body Weight Changes: Body weight gain increase + Food Consumption…): 20 mg/kg-day

SMILES: CN(C)c1ccc(C(=C2C=CC(=[N+](C)C)C=C2)c2ccccc2)cc1.[Cl-] [Malachite green]
- NOEL (subchronic, diet, M/F, Fischer 344, Body Weight Changes: decrease + Hematology: Hct decrease, RBC decrease, Hgb decrease + Blood Chemistry: Cho increase, gamma-GTP increase + …): 12 mg/kg-day

SMILES: COCCC(=O)OC [Methyl 3-methoxypropionate]
- NOEL (subchronic, duration: 42 days, gavage, M, Sprague-Dawley, Clinical Observation: Salivation + Food Consumption: decrease + Urinalysis: Volume increasep H decrease + Hematology: Mono increase + Blood …): 62.5 mg/kg-day

SMILES: CC(=O)C=Cc1ccccc1 [Methyl styryl ketone]
- NOEL (short-term, duration: 28 days, gavage, M/F, Sprague-Dawley, Functional Observational Battery: Salivation Rearing decrease + Urinalysis: KET increase + Blood Chemistry: T-Cho increase + Absolute Organ …): 60 mg/kg-day

SMILES: CN(c1nccc(=O)[nH]1)C1CCN(c2nc3ccccc3n2Cc2ccc(F)cc2)CC1 [Mizolastine]
- NOAEL (chronic, duration: 182 days, gavage, M/F, Sprague-Dawley, Clinical Observation: Salivation + Urinalysis: Volume increase + Blood Chemistry: IP increase + Absolute Organ Weight: Liver increase, …): 5 mg/kg-day

SMILES: CN(C)C(=O)Nc1ccc(Cl)cc1 [Monuron]
- NOAEL [2]: < 40 mg/kg-day
- NOEL [2]: < 40 mg/kg-day

SMILES: Nc1ccc(Nc2ccccc2)cc1 [N-Phenyl-1,4-benzenediamine]
- NOAEL (subchronic, duration: 90 days, diet, M, Wistar, Body Weight Changes: Body weight gain decrease + Food Consumption: decrease + Hematology: RBC decrease, HGB decrease, HCT decrease, MCV …): 96 mg/kg-day

SMILES: c1ccc(Nc2ccc3ccccc3c2)cc1 [N-Phenyl-2-naphthylamine]
- NOEL (subchronic, duration: 13 weeks, diet, M/F, Fischer 344, Deaths + Clinical Observation: Rough coats + Body Weight Changes: decrease + Absolute Organ Weight: Liver increase + Relative Organ Weight…): 240 mg/kg-day

SMILES: NC(=O)c1cccnc1 [Niacinamide]
- NOAEL (short-term, duration: 28 days, gavage, M/F, Wistar, Body Weight Changes: decrease + Food Consumption: decrease + Blood Chemistry: AST increase, ALT increase, T-Cho increase, ALP increase, BUN …): 215 mg/kg-day

SMILES: COC(=O)C1=C(C)NC(C)=C(C(=O)OCCN(C)Cc2ccccc2)C1c1cccc([N+](=O)[O-])c1.Cl (stereo unspecified) [Nicardipine hydrochloride]
- NOEL (subchronic, duration: 35 days, gavage, M/F, Sprague-Dawley, Deaths + Clinical Observation: Locomotor activity decrease, Prone position Dyspnea Ataxic gait Ptosis Piloerection Respiratory rate increase…): 10 mg/kg-day

SMILES: COC(=O)C1=C(C#N)NC(C)=C(C(=O)OC(C)C)C1c1cccc([N+](=O)[O-])c1 (stereo unspecified) [Nilvadipine]
- NOEL (subchronic, gavage, M/F, Sprague-Dawley, Relative Organ Weight: Heart increase Liver increase Ovary increase + Histopathology: Adrenal-Lipoid increase, of zona glomerulosa): < 9.6 mg/kg-day

SMILES: COc1c(Cl)c(Cl)c(Cl)c(Cl)c1Cl [Pentachloroanisole]
- NOEL (subchronic, duration: 13 weeks, gavage, M/F, Fischer 344, Deaths + Clinical Observation: Labored respiration + Body Weight Changes: decrease + Blood Chemistry: Ch E decrease + Absolute Organ Weight…): < 40 mg/kg-day

SMILES: CCCCC(CC)COP(=O)(O)CC(CC)CCCC (stereo unspecified) [Phosphonic acid, P-(2-ethylhexyl)-, mono(2-ethylhexyl) ester]
- NOEL (subchronic, gavage, M, Sprague-Dawley, Hematology: Hgb decrease, Hct decrease + Blood Chemistry: Alb increase, A/G increase + Absolute Organ Weight: Liver increase + Relative …): 30 mg/kg-day

SMILES: CCCN(CCC)S(=O)(=O)c1ccc(C(=O)O)cc1 [Probenecid]
- NOEL (subchronic, duration: 13 weeks, gavage, M/F, Fischer 344, Clinical Observation: Yellow-brown staining of the perineum + Body Weight Changes: decrease + Absolute Organ Weight: Liver increase, Right …): < 50 mg/kg-day

SMILES: Clc1ccc(Cl)nn1 [Pyridazine, 3,6-dichloro-]
- NOEL (short-term, duration: 28 days, gavage, F, Sprague-Dawley, Body Weight Changes: decrease, Weight gain decrease + Food Consumption: decrease + Urinalysis: BIL increase + Blood Chemistry: TP increase, …): 10 mg/kg-day

SMILES: O=C(O)c1cc(C(=O)O)c(C(=O)O)cc1C(=O)O [Pyromellitic acid]
- LOEL [3]: 100 mg/kg-day
- NOEL [3]: < 100 mg/kg-day

SMILES: CCCCCCCCCCCCC(C(=O)OC)S(=O)(=O)[O-].[Na+] (stereo unspecified) [Sodium 1-methoxy-1-oxotetradecane-2-sulfonate]
- NOEL (subchronic, diet, F, Crj: CD (SD), Blood Chemistry: TG decrease + Absolute Organ Weight: Testis increase + Relative Organ Weight: Testis increase): 249 mg/kg-day
- NOEL (subchronic, diet, M/F, Crj: CD (SD), Blood Chemistry: TG decrease + Absolute Organ Weight: Testis increase + Relative Organ Weight: Testis increase): 0.3%
- NOEL (subchronic, diet, M, Crj: CD (SD), Blood Chemistry: TG decrease + Absolute Organ Weight: Testis increase + Relative Organ Weight: Testis increase): 175 mg/kg-day

SMILES: O=N[O-].[Na+] [Sodium nitrite]
- NOEL (chronic, duration: 14 weeks, water, F, Fischer 344, Deaths + Clinical Observation: Brown discoloration in eyes Cyanosis Hypoactive Alopecia + Body Weight Changes: decrease + Water Consumption…): < 40 mg/kg-day
- NOEL (chronic, duration: 14 weeks, water, M/F, Fischer 344, Deaths + Clinical Observation: Brown discoloration in eyes Cyanosis Hypoactive Alopecia + Body Weight Changes: decrease + Water Consumption…): < 83.6 mg/kg-day

SMILES: [Cl][Sn][Cl] [Stannous chloride]
- NOEL (subchronic, duration: 13 weeks, diet, M/F, Fischer 344, Body Weight Changes: decrease): 365 mg/kg-day

SMILES: CCCC[B-](c1ccccc1)(c1ccccc1)c1ccccc1.CCCC[N+](CCCC)(CCCC)CCCC [Tetrabutylammonium butyltriphenylborate]
- NOEL (short-term, duration: 28 days, gavage, M/F, Blood Chemistry: GPT increase, CHE decrease + Histopathology: Thymus-Proliferation, histiocyte Thymus-Atrophy Adrenal-Decreased lipoid): < 3 mg/kg-day

SMILES: CCC[CH2][Sn]([CH2]CCC)([CH2]CCC)[CH2]CCC [Tetrabutyltin]
- NOAEL (subchronic, duration: 33 days, diet, M, Wistar, Body Weight Changes: Weight gain decrease + Absolute Organ Weight: Thymus decrease + Relative Organ Weight: Thymus decrease, Spleen decrease…): 9.6 mg/kg-day

SMILES: O=C(O)C(Cl)(Cl)Cl [Trichloroacetic acid]
- NOEL (short-term, duration: 28 days, gavage, M/F, Clinical Observation: Salivation Soft feces Locomotor activity decrease + Urinalysis: Ketone body increase + Hematology: WBC increase, Trend…): 40 mg/kg-day

SMILES: N#CC(Cl)(Cl)Cl [Trichloroacetonitrile]
- NOEL (short-term, duration: 28 days, gavage, M/F, Clinical Observation: Salivation Locomotor activity decrease, Bradypnea Ptosis Flushing of auricle Staggering gait + Body Weight Changes: …): 40 mg/kg-day

SMILES: Cl.Cl.NCCNCCNCCN [Trientine hydrochloride]
- NOAEL (chronic, duration: 92 days, drinking water, F, Fischer 344, Histopathology: Uterus: Increased prevalence of dilatation): 669 mg/kg-day

SMILES: CCOP(OCC)OCC [Triethyl phosphite]
- NOAEL (subchronic, duration: 32 days, gavage, M/F, Deaths + Clinical Observation: Impaired general condition Emaciation Unkempt fur + Body Weight Changes: Weight gain decrease + Food …): 150 mg/kg-day

SMILES: CO[Si](OC)(OC)c1ccccc1 [Trimethoxyphenylsilane]
- NOAEL (short-term, duration: 28 days, gavage, M, Han Wistar, Body Weight Changes: decrease + Food Consumption: decrease + Blood Chemistry: BUN increase, BA increase, T-Cho increase + Absolute Organ …): < 100 mg/kg-day

SMILES: C[Si](C)(C)O [Trimethylsilanol]
- NOAEL (short-term, duration: 28 days, gavage, M/F, Wistar, Clinical Observation: Staggering gait + Body Weight Changes: Body weight gain decrease + Relative Organ Weight: Liver increase + …): 250 mg/kg-day

SMILES: C=C[Si](OCCOC)(OCCOC)OCCOC [Tris(2-methoxyethoxy)vinylsilane]
- NOAEL (short-term, duration: 28 days, gavage, M/F, CD(SD), Body Weight Changes: decrease + Food Consumption: decrease + Hematology: RBC decrease, HGB decrease, HCT decrease, MCHC decrease, RET …): 25 mg/kg-day

SMILES: CCCCCCCCCCC=O [Undecanal]
- NOAEL (subchronic, duration: 42 days, gavage, M, CD(SD), Clinical Observation: Salivation (transient)): 1000 mg/kg-day
